Results as given in patent US11964953B2, “Substituted aminothiazoles as DGKzeta inhibitors for immune activation” (Bayer Aktiengesellschaft, priority 2020, dated 2024).

molecular target: human DGKζ (Homo sapiens (Human), UniProt Q13574); assay: Human DGKζ kinase activity inhibition assay (ADP-Glo); assay type: biochemical; conditions: in vitro human DGKζ kinase activity inhibition assay; read-out: IC50
In short: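 Enzyme was C-terminally FLAG-tagged full-length recombinant human DGKζ from baculovirus-infected insect cells. Substrate preparation used octyl-β-D-glucopyranoside in 50 mM MOPS pH 7.4 with sonication; ADP generated was quantified by ADP-Glo luminescence as activity measure.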

Chain of human DGKζ (Q13574 other isoform, or with tags, fused parts or gaps): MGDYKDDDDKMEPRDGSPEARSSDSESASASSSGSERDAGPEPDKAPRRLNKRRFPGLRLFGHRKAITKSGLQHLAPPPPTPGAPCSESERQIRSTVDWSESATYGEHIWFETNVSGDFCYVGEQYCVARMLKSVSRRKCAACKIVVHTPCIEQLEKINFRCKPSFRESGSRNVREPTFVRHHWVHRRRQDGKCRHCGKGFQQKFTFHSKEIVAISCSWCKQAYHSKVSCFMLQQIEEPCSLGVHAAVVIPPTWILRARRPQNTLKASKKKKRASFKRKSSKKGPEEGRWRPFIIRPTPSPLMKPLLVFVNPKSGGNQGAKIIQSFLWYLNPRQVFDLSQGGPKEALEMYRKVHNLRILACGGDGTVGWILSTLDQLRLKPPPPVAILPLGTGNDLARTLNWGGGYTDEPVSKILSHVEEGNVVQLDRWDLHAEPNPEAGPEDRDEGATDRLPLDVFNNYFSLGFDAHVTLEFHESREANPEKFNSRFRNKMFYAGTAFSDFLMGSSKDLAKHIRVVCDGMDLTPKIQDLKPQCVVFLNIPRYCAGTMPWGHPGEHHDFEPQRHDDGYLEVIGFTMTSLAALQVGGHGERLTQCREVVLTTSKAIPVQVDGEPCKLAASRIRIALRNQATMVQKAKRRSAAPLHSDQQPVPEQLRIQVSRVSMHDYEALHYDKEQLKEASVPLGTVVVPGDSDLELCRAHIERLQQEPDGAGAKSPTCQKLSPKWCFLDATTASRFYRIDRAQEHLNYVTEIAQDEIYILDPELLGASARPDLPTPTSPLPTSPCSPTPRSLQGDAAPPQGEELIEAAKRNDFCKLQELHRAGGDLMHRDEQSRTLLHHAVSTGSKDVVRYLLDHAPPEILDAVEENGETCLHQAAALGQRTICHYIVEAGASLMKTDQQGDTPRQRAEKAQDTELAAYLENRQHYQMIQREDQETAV

Compared with `CC(C(N)=O)N(c1ccc(F)cc1)c1nc(N)c(C(=O)c2ccc(N3CCCC3)cc2)s1` (racemic) [Example 181, rac-2-(N-[4-amino-5-(4-pyrrolidin-1-ylbenzoyl)thiazol-2-yl]-4-fluoro-anilino)propanamide], `CC(C(N)=O)N(c1ccc(F)cc1)c1nc(N)c(C(=O)c2ccc(Br)cc2)s1` (racemic) [Example 80, rac-2-(N-[4-amino-5-(4-bromobenzoyl)thiazol-2-yl]-4-fluoro-anilino)propanamide] is 6-fold lower in IC50: 65 nM for the first, 10.8 nM for the second.

`CC(C(N)=O)N(c1ccc2c(c1)OC(F)(F)O2)c1nc(N)c(C(=O)c2ccc(OC(F)F)nc2)s1` (racemic) [Example 216, rac-2-[[4-amino-5-[6-(difluoromethoxy)pyridine-3-carbonyl]thiazol-2-yl]-(2,2-difluoro-1,3-benzodioxol-5-yl)amino]propanamide] and `CC(C(N)=O)N(c1ccc(OC(F)F)c(F)c1)c1nc(N)c(C(=O)c2ccc(OC(F)F)nc2)s1` (racemic) [Example 209, rac-2-[N-[4-amino-5-[6-(difluoromethoxy)pyridine-3-carbonyl]thiazol-2-yl]-4-(difluoromethoxy)-3-fluoro-anilino]propanamide] are within 1.5-fold of each other in IC50: 32 nM for the first, 45 nM for the second.

Compared with `CC(C(N)=O)N(c1cccnc1)c1nc(N)c(C(=O)c2ccccc2)s1` (single isomer, unassigned) [Example 79.1, 2-[(4-amino-5-benzoyl-thiazol-2-yl)-(3-pyridyl)amino]propanamide], `CC(C(N)=O)N(c1ccncc1)c1nc(N)c(C(=O)c2ccccc2)s1` (racemic) [Example 189, rac-2-[(4-amino-5-benzoyl-thiazol-2-yl)-(4-pyridyl)amino]propanamide] is 3.8-fold higher in IC50: 1660 nM for the first, 6350 nM for the second. The first is the more potent here.

`CCOC(=O)c1ccc(C(=O)c2sc(N(c3ccc(Cl)c(F)c3)C(C)C(N)=O)nc2N)cc1` (racemic) [Example 258, rac-Ethyl 4-[4-amino-2-(N-(2-amino-1-methyl-2-oxo-ethyl)-4-chloro-3-fluoro-anilino)thiazole-5-carbonyl]benzoate] and `CC(C(N)=O)N(c1ccc(Cl)c(F)c1)c1nc(N)c(C(=O)c2ccc(C(=O)NCCOC(F)F)cc2)s1` (racemic) [Example 270, rac-4-[4-amino-2-(N-(2-amino-1-methyl-2-oxo-ethyl)-4-chloro-3-fluoro-anilino)thiazole-5-carbonyl]-N-2-(difluoromethoxy)ethyl]benzamide] are within 1.5-fold of each other in IC50: 19 nM for the first, 13 nM for the second.

Going from `CC(Oc1ccc(C(=O)c2sc(N(c3ccccc3)C(C)C(N)=O)nc2N)cc1)C(N)=O` (single isomer, unassigned) [Example 45.4, 2-(N-[4-amino-5-[4-[2-amino-1-methyl-2-oxo-ethoxy]benzoyl]thiazol-2-yl]anilino)propanamide] to `Cc1ccc(N(c2nc(N)c(C(=O)c3ccccc3)s2)C(C)C(N)=O)cc1` (single isomer, unassigned) [Example 73.2, 2-(N-(4-amino-5-benzoyl-thiazol-2-yl)-4-methyl-anilino)propanamide], the IC50 falls from over 20000 nM to 82.1 nM.

First: CC(C(N)=O)N(c1cnn(C)c1)c1nc(N)c(C(=O)c2ccccc2)s1 (single isomer, unassigned) [Example 78.2, 2-[(4-amino-5-benzoyl-thiazol-2-yl)-(1-methylpyrazol-4-yl)amino]propanamide]
Second: CC(C(N)=O)N(c1ccc(Cl)c(F)c1)c1nc(N)c(C(=O)c2ccccc2)s1 (racemic) [Example 36, rac-2-(N-(4-amino-5-benzoyl-thiazol-2-yl)-4-chloro-3-fluoro-anilino)propanamide]
The IC50 of the first is 340-fold higher: 7550 nM for the first, 22.2 nM for the second. The second is the more potent here.

Going from `CC(C(N)=O)N(c1ccc(F)cc1)c1nc(N)c(C(=O)c2ccc(OCC(=O)N(C)Cc3cccnc3)cc2)s1` (racemic) [Example 137, rac-2-(N-[4-amino-5-[4-[2-[methyl(3-pyridylmethyl)amino]-2-oxo-ethoxy]benzoyl]thiazol-2-yl]-4-fluoro-anilino)propanamide] to `Cc1ccccc1N(C)C(=O)COc1ccc(C(=O)c2sc(N(c3ccc(F)cc3)C(C)C(N)=O)nc2N)cc1` (racemic) [Example 138, rac-2-(N-[4-amino-5-[4-[2-(N,2-dimethylanilino)-2-oxo-ethoxy]benzoyl]thiazol-2-yl]-4-fluoro-anilino)propanamide], the IC50 falls from 238 nM to 61.6 nM (3.9-fold).

Compared with `COc1ccc(C(=O)c2sc(N(c3ccc(Cl)cc3)C(C)C(N)=O)nc2N)cc1` (racemic) [Example 58, rac-2-(N-[4-amino-5-(4-methoxybenzoyl)thiazol-2-yl]-4-chloro-anilino)propanamide], `CC(C(N)=O)N(c1ccc(F)cc1)c1nc(N)c(C(=O)c2ccc(OC(F)F)cc2)s1` (racemic) [Example 44, rac-2-(N-[4-amino-5-[4-(difluoromethoxy)benzoyl]thiazol-2-yl]-4-fluoro-anilino)propanamide] is 1.9-fold lower in IC50: 16.7 nM for the first, 8.83 nM for the second.

Compared with `CNC(=O)c1ccc(C(=O)c2sc(N(c3ccc(F)cc3)C(C)C(N)=O)nc2N)cc1` (racemic) [Example 15, rac-4-[4-amino-2-(N-[2-amino-1-methyl-2-oxo-ethyl]-4-fluoro-anilino)thiazole-5-carbonyl]-N-methyl-benzamide], `CC(C)NC(=O)c1ccc(C(=O)c2sc(N(c3ccc(F)cc3)C(C)C(N)=O)nc2N)cc1` (racemic) [Example 261, rac-4-[4-amino-2-(N-(2-amino-1-methyl-2-oxo-ethyl)-4-fluoro-anilino)thiazole-5-carbonyl]-N-isopropyl-benzamide] is 3-fold lower in IC50: 266 nM for the first, 90 nM for the second.

Compared with `CC(C(N)=O)N(c1ccc(F)cc1)c1nc(N)c(C(=O)c2ccc(OCC(=O)NCc3ccc(F)cc3)cc2)s1` (racemic) [Example 97, rac-2-(N-[4-amino-5-[4-[2-[(4-fluorophenyl)methylamino]-2-oxo-ethoxy]benzoyl]thiazol-2-yl]-4-fluoro-anilino)propanamide], `CC(C(N)=O)N(c1ccc(F)cc1)c1nc(N)c(C(=O)c2ccc(OCC(=O)N3CCC[C@H]3C(N)=O)cc2)s1` (mixture of isomers) [Example 110, (2S)-1-[2-[4-[4-amino-2-(N-[2-amino-(1RS)-methyl-2-oxo-ethyl]-4-fluoro-anilino)thiazole-5-carbonyl]phenoxy]acetyl]pyrrolidine-2-carboxamide] is 15-fold higher in IC50: 24.7 nM for the first, 366 nM for the second. The first is the more potent here.

Compared with `CC(C(N)=O)N(c1ccc(F)cc1)c1nc(N)c(C(=O)c2ccc(NC(=O)C3CC3)cc2)s1` (racemic) [Example 177, rac-4-[4-[4-amino-2-(N-(2-amino-1-methyl-2-oxo-ethyl)-4-fluoro-anilino)thiazole-5-carbonyl]phenyl]cyclopropanecarboxamide], `CC(C(N)=O)N(c1ccc(F)cc1)c1nc(N)c(C(=O)c2ccc(C(=O)NC[C@@H](C)O)cc2)s1` (mixture of isomers) [Example 265, 4-[4-amino-2-(N-(2-amino-1-methyl-2-oxo-ethyl)-4-fluoro-anilino)thiazole-5-carbonyl]-N-[(2R)-2-hydroxypropyl]benzamide (mixture of stereoisomers)] is 11-fold higher in IC50: 40 nM for the first, 459 nM for the second.

Going from `CC(C(N)=O)N(c1ccc(OC(F)(F)F)nc1)c1nc(N)c(C(=O)c2ccc(OC(F)F)cc2)s1` (racemic) [Example 250, rac-2-[[4-amino-5-[4-(difluoromethoxy)benzoyl]thiazol-2-yl]-[6-(trifluoromethoxy)-3-pyridyl]amino]propanamide] to `CC(C(N)=O)N(c1ccc(F)cc1)c1nc(N)c(C(=O)c2ccc(C(F)(F)F)nc2)s1` (racemic) [Example 29, rac-2-(N-[4-amino-5-[6-(trifluoromethyl)pyridine-3-carbonyl]thiazol-2-yl]-4-fluoro-anilino)propanamide], the IC50 rises from 36 nM to 58.4 nM (1.6-fold). The first is the more potent here.

Going from `CC(C(N)=O)N(c1ccc(F)cc1)c1nc(N)c(C(=O)c2ccc(Cl)c(C(F)(F)F)c2)s1` (racemic) [Example 10, rac-2-(N-[4-amino-5-[4-chloro-3-(trifluoromethyl)benzoyl]thiazol-2-yl]-4-fluoro-anilino)propanamide] to `Cc1cc(C(=O)c2sc(N(c3ccc(F)cc3)C(C)C(N)=O)nc2N)ccn1` (racemic) [Example 187, rac-2-(N-[4-amino-5-(2-methylpyridine-4-carbonyl)thiazol-2-yl]-4-fluoro-anilino)propanamide], the IC50 rises from 425 nM to 1400 nM (3.3-fold).

Going from `CC(C(N)=O)N(c1ccc(F)cc1)c1nc(N)c(C(=O)c2ccc(OCC(=O)N3CCC(N(C)C)CC3)cc2)s1` (racemic) [Example 136, rac-2-(N-[4-amino-5-[4-[2-[4-(dimethylamino)-1-piperidyl]-2-oxo-ethoxy]benzoyl]thiazol-2-yl]-4-fluoro-anilino)propanamide] to `CC(C(N)=O)N(c1ccc(F)cc1)c1nc(N)c(C(=O)c2ccc(N3CCC(F)(F)CC3)nc2)s1` (racemic) [Example 284, rac-2-(N-[4-amino-5-[6-(4,4-difluoro-1-piperidyl)pyridine-3-carbonyl]thiazol-2-yl]-4-fluoro-anilino)propanamide], the IC50 falls from 740 nM to 33 nM (22-fold). The second is the more potent here.

First: CC(C(N)=O)N(c1ccc(F)cc1)c1nc(N)c(C(=O)c2cccc(C#N)c2)s1 (racemic) [Example 12, rac-2-(N-[4-amino-5-(3-cyanobenzoyl)thiazol-2-yl]-4-fluoro-anilino)propanamide]
Second: CC(C(N)=O)N(c1ccc(F)c(F)c1)c1nc(N)c(C(=O)c2ccc(C(F)(F)F)nc2)s1 (racemic) [Example 53, rac-2-(N-[4-amino-5-[6-(trifluoromethyl)pyridine-3-carbonyl]thiazol-2-yl]-3,4-difluoro-anilino)propanamide]
The IC50 of the first is 12-fold higher: 364 nM for the first, 30.8 nM for the second.

Compared with `CC(C(N)=O)N(c1cnn(C)c1)c1nc(N)c(C(=O)c2ccccc2)s1` (racemic) [Example 78, rac-2-[(4-amino-5-benzoyl-thiazol-2-yl)-(1-methylpyrazol-4-yl)amino]propanamide], `Cc1nc(N(c2ccc(F)c(F)c2)C(C)C(N)=O)sc1C(=O)c1ccc(OC(F)F)cc1` (single isomer, unassigned) [Example 55.2, 2-(N-[5-[4-(difluoromethoxy)benzoyl]-4-methyl-thiazol-2-yl]-3,4-difluoro-anilino)propanamide] is 8.6-fold lower in IC50: 7220 nM for the first, 835 nM for the second. The second is the more potent here.
